Measurements published in PMC10889688 (2024).

What was measured:
[1] = system: rArU (AU homopolynucleotide) (RNA, polymer) A/U; assay: UV thermal melting at 260 nm; details: Na+ (sodium cacodylate, I = 0.05 mol dm^-3); sodium cacodylate buffer pH 7.0; r = [compound]/[polynucleotide] = 0.1; per base
[2] = system: rArU (AU homopolynucleotide) (RNA, polymer) A/U; assay: fluorescence titration, Scatchard equation; details: Na+ (sodium cacodylate, I = 0.05 mol dm^-3); sodium cacodylate buffer pH 7.0, 25 °C; RNA concentration as phosphates; per base

| ΔTm [1] | logKa [2] | SMILES |
| --- | --- | --- |
| 1.1 ± 0.5 °C | 8.6 | CN(C)CCCNc1ccc2cc3cc(C#N)c4nc5ccccc5n4c3nc2c1 |
| 4.9 ± 0.5 °C | 7.9 | N#Cc1cc2cc3ccc(N4CCNCC4)cc3nc2n2c1nc1ccccc12 |
